“Also recorded” adds a separate entry of the source. * marks the point of attachment. C16 alkyl = CCCCCCCCCCCCCCCC*
Tests used:
IL-13 = IL-13 expression in regenerated bladder tissue (immunofluorescence); type: in vivo, rat; conditions: for Cytokine expression (shown as percentage of cells staining positive) Anti-inflammatory IL-13: 5 weeks post-augmentation, means ± SE; for percentage of cells staining positive for IL-13: 10 days post-augmentation
Description: (§1) Athymic female rats (weighing ˜200 g and 8-10 weeks old; National Cancer Institute Animal Production Program) underwent bladder augmentation (ref. 15; herein incorporated by reference in its entirety). Athymic rats were chosen for this study to solely examine the innate immune response to inflammation without influence of the adaptive immune response. In order to induce anesthesia, animals were given intraperitoneal injections of 60 mg/kg ketamine and 5 mg/kg xylazine. A second injection consisting of Buprenex (1 mg/kg) was administered subcutaneously to alleviate any pain/discomfort during and following surgical procedures. An approximate 1.5 cm midline vertical skin incision was created to expose the abdominal fascia and muscles. This was immediately followed by the separation of the wall leading to the identification of the bladder. An approximate 70% supratrigonal cystectomy was performed from anterior to posterior creating a clamshell. Immediately prior to bladder augmentation procedures, samples of the pro-inflammatory biological scaffold, small intestinal submucosa (SIS (0.5×0.5 cm); Cook Biotech.) (refs. 12,13,16; herein incorporated by reference in their entireties) were thoroughly dip-coated separately in one of the previously described AIF-PAs following gelation procedures. The sections of SIS were dip-coated for approximately 20 seconds and allowed to adhere to the SIS for an additional 30 seconds. Dip-coating procedures were performed at room temperature in air. The cystectomized bladder defect was then augmented with: 1) SIS (non-AIF-PA coated SIS; n=8 animals over both time-points); 2) AIF-PA1 coated SIS (denoted as SIS/AIF-PA1; n=11 animals over both time-points); 3) AIF-PA2 coated SIS (denoted as SIS/AIF-PA2; n=8 animals over both time-points); 4) AIF-PA3 coated SIS (denoted as SIS/AIF-PA3; n=3); 5) AIF-PA4 coated SIS (denoted as SIS/AIF-PA4; n=3 animals); 6) AIF-PA5 coated SIS (denoted as SIS/AIF-PA5; n=3 animals); and 7) AIFC-PA6 coated SIS (denoted as SIS/AIFC-PA6; n=9 animals over both time-points). The bladder was finally covered with omentum after being closed in a watertight manner utilizing 7-0 polyglactin suture. The abdominal wall was then closed in a single layer with 5-0 ethibond running suture and the skin re-approximated with 9 mm autoclips. Each group was sacrificed at 10 day and 5 week time-points.
(§2) Tissue sections comprised of SIS alone, SIS/AIF-PA1, SIS/AIF-PA2, and SIS/AIF-PA6 augmentations were subjected to immunofluorescence staining by initially undergoing antigen retrieval which consisted of 15 min of boiling in citrate buffer (0.01M citrate solution, pH 6.0 with 0.05% Tween-20) followed by cooling at room temperature for approximately 20 minutes. The antibody staining process consisted of a blocking step for 15 min in bovine serum albumin (BSA, 5 mg/ml) followed by a 40 minutes incubation at room temperature with the primary antibody. After washing with DPBS, slides were incubated for 30 min with a secondary antibody and eventually rinsed with DPBS and air dried. Slides were mounted with Vectashield (Vector Laboratories). Primary antibodies were directed against epitopes for the inflammatory markers CD68 (macrophage) (refs. 18,19; herein incorporated by reference in their entireties) MPO (neutrophil) (ref. 20; herein incorporated by reference in its entirety) or the inflammation-related proteins IL1β, TNFα, IL-10, IL-13, CD206 (M2 macrophage) (refs. 21-25; herein incorporated by reference in their entireties) and CD86 (M1 macrophage) (ref. 26; herein incorporated by reference in its entirety). Antibodies directed against the ECM in regenerating bladder tissue (including COL4A3 and fibronectin) were also utilized. Alexa Red 555 or FITC conjugated secondary antibodies (Molecular Probes) were utilized for visualization (ref. 15; herein incorporated by reference in its entirety). […]

MPO+ neutrophils = assay: Immunofluorescence quantification of MPO+ neutrophils in regenerated bladder tissue; type: in vivo, rat
Description: as §1, §2

[1] = tested on: Rat Bladder Augmentation Model; assay: Granuloma quantification (CD68 immunofluorescence) in augmented bladder tissue; type: in vivo
Source text: Granulation tissue is composed of several extracellular matrices such as collagen and a variety of immune cell types including lymphocytes, neutrophils, and especially macrophages (refs. 54-56; herein incorporated by reference in their entireties). Extravesical granulomas were found in regenerating bladder muscle and submucosa but not in the epithelial layer (urothelium) that lines the interior of the bladder wall. […] Granulation tissue was identified by a trained Pathologist (M.D.H.) utilizing immunofluorescence imaging with the macrophage marker CD68 (green). […] Images are representative examples of multiple stained tissue samples. See Table 1 for granuloma quantification. Magnification 100× (Scale bar, 200 μm).
as §1
Tissue sections comprised of SIS alone, SIS/AIF-PA1, SIS/AIF-PA2, and SIS/AIF-PA6 augmentations were subjected to immunofluorescence staining by initially undergoing antigen retrieval which consisted of 15 min of boiling in citrate buffer (0.01M citrate solution, pH 6.0 with 0.05% Tween-20) followed by cooling at room temperature for approximately 20 minutes. The antibody staining process consisted of a blocking step for 15 min in bovine serum albumin (BSA, 5 mg/ml) followed by a 40 minutes incubation at room temperature with the primary antibody. After washing with DPBS, slides were incubated for 30 min with a secondary antibody and eventually rinsed with DPBS and air dried. Slides were mounted with Vectashield (Vector Laboratories). […]

CD86+ M1 macrophages = assay: M1 macrophage subtype (CD86) distribution in regenerating bladder tissue; type: in vivo, rat; conditions: for M1 macrophage levels, in words: 10 days to 5 weeks
Description: as §1, §2

[2] = tested on: Rat Bladder Augmentation Model; assay: Bladder stone formation in regenerating bladders; type: in vivo; conditions: for Bladder Stone Formation (shown as percentage of animals forming stones): 5 weeks post-augmentation; for size of bladder stones formed, in words: rat, in vivo
Source text: Bladder stone formation can be caused by a myriad of factors including those based upon diet as well as genetic makeup and underlying bladder conditions (refs. 57,58; herein incorporated by reference in its entirety).
as §1

Row | Substance | Cytokine expression (shown as percentage of cells staining positive) Anti-inflammatory IL-13 (IL-13) [percentage] | percentage of cells staining positive for IL-13 (IL-13) [%] | percentage of cells positive for MPO (MPO+ neutrophils; 5 weeks post-augmentation) [%] | Maximum Granuloma Size ([1]; 5W post-augmentation) | Mean Granuloma Size ([1]; 5W post-augmentation) | Minimum Granuloma Size ([1]; 5W post-augmentation) | Number of Granulomas ([1]; 5W post-augmentation) | Number of Large Granulomas (>0.01 mm^2) ([1]; 5W post-augmentation) | granuloma formation, in words ([1]; 5W samples) | Maximum Granuloma Size ([1]; 10D post-augmentation) | Mean Granuloma Size ([1]; 10D post-augmentation) | Minimum Granuloma Size ([1]; 10D post-augmentation) | Number of Granulomas ([1]; 10D post-augmentation) | Number of Large Granulomas (>0.01 mm^2) ([1]; 10D post-augmentation) | granuloma formation, in words ([1]; 10 day samples) | number of M1 macrophages (CD86+ M1 macrophages; 5W post-augmentation) [cells/mm^2] | Bladder Stone Formation (shown as percentage of animals forming stones) [2] [percentage] | size of bladder stones formed, in words [2] | percentage of cells positive for MPO (MPO+ neutrophils; 10 days post-augmentation) [%] | M1 macrophage levels, in words (CD86+ M1 macrophages) | further results
1 | C16-VVVAAAEEEKLMSQKMVD (SEQ ID NO:6) ({C16 alkyl}-VVVAAAEEEKLMSQKMVD-NH2) [SIS/AIFC-PA6, reference compound] | 20.4 ± 2.6 | 28.6±3.0 | 17.6±1.8 | 14.80 ± 2.30 10^-3 mm^2 | 6.10 ± 0.51 10^-3 mm^2 | 2.21 ± 0.30 10^-3 mm^2 | 7.00 ± 1.08 | 1.00 ± 0.41 | accumulation of granulomas | 110.89 ± 1.51 10^-3 mm^2 | 29.64 ± 0.74 10^-3 mm^2 | 6.12 ± 0.01 10^-3 mm^2 | 10.00 ± 1.00 | 6.00 ± 1.00 | large granuloma formation | 957.7±106.2 | 42.9 | quite large in size | – | – | number of M1 macrophages (CD86+ M1 macrophages; 10D post-augmentation): 986.9±18.1 cells/mm^2
2 | C16-VVVAAAEEEHDMNKVLDL (SEQ ID NO:2) ({C16 alkyl}-VVVAAAEEEHDMNKVLDL-NH2) [SIS/AIF-PA2, anti-inflammatory peptide amphiphile, tested dip-coated on small intestinal submucosa (SIS) scaffold] | 32.0 ± 1.8 | 41.2±2.2 | 7.2±1.1 | 4.08 ± 0.38 10^-3 mm^2 | 3.00 ± 0.20 10^-3 mm^2 | 2.09 ± 0.39 10^-3 mm^2 | 3.00 ± 1.00 | 0 | diminished | 11.99 ± 3.62 10^-3 mm^2 | 5.95 ± 1.16 10^-3 mm^2 | 2.65 ± 0.17 10^-3 mm^2 | 4.00 ± 1.00 | 0.67 ± 0.33 | lesser degree of granuloma formation in size and frequency | 389.4±62.6 | 16.7 | a fraction of the size found in control animals | 9.0±0.5 | Comparatively low numbers | –
3 | C16-VVVAAAEEEMQMKKVLDS (SEQ ID NO:1) ({C16 alkyl}-VVVAAAEEEMQMKKVLDS-NH2) [SIS/AIF-PA1, anti-inflammatory peptide amphiphile, tested dip-coated on small intestinal submucosa (SIS) scaffold] | 26.1 ± 2.7 | 48.2±2.8 | 5.2±0.7 | 1.62 ± 1.15 10^-3 mm^2 | 1.26 ± 0.68 10^-3 mm^2 | 0.97 ± 0.65 10^-3 mm^2 | 1.75 ± 1.03 | 0 | diminished | 23.39 ± 7.66 10^-3 mm^2 | 8.77 ± 1.32 10^-3 mm^2 | 2.67 ± 0.15 10^-3 mm^2 | 4.00 ± 1.00 | 1.33 ± 0.33 | lesser degree of granuloma formation in size and frequency | 343.4±45.4 | 25.0 | a fraction of the size found in control animals | 6.9±0.7 | dropped considerably; also recorded: significant decline over time | –

— patent US11161876B2, “Anti-inflammatory nanofibers” (Northwestern University, priority 2015, dated 2021)
